Source: US20100298141A1, “SUBSTITUTED PYRIDINE N-OXIDE HERBICIDES” (E. I. DU PONT DE NEMOURS AND COMPANY, priority 2007, published 2010)

Tests used:
Test in all cases: Test A pre-/postemergence greenhouse test
barnyardgrass = assay type: in vivo, Echinochloa crus-galli; details: for Plant response rating, Barnyardgrass: 0 to 100 scale where 0 is no effect and 100 is complete control; for Barnyardgrass plant response rating: 0 to 100 scale
From the text: (§1) Seeds of barnyardgrass (Echinochloa crus-galli), crabgrass (Digitaria sanguinalis), giant foxtail (Setaria faberi), morningglory (Ipomoea spp.), redroot pigweed (Amaranthus retroflexus), velvetleaf (Abutilon theophrasti), wheat (Triticum aestivum), and corn (Zea mays) were planted into a blend of loam soil and sand and treated preemergence with a directed soil spray using test compounds formulated in a non-phytotoxic solvent mixture which included a surfactant. At the same time these species were also treated with postemergence applications of test compounds formulated in the same manner. Plants ranged in height from two to ten cm and were in the one- to two-leaf stage for the postemergence treatment. Treated plants and untreated controls were maintained in a greenhouse for approximately ten days, after which time all treated plants were compared to untreated controls and visually evaluated for injury. […] A dash (-) response means no test results.

crabgrass = assay type: in vivo, Digitaria sanguinalis; details: for Plant response rating, Crabgrass, Large: 0 to 100 scale where 0 is no effect and 100 is complete control; for Crabgrass, Large plant response rating: 0 to 100 scale
From the text: as §1

giant foxtail = assay type: in vivo, Setaria faberi; details: for Plant response rating, Foxtail, Giant: 0 to 100 scale where 0 is no effect and 100 is complete control; for Foxtail, Giant plant response rating: 0 to 100 scale
From the text: as §1

morningglory = assay type: in vivo, Ipomoea spp.; details: for Plant response rating, Morningglory: 0 to 100 scale where 0 is no effect and 100 is complete control; for Morningglory plant response rating: 0 to 100 scale
From the text: as §1

redroot pigweed = assay type: in vivo, Amaranthus retroflexus; details: for Plant response rating, Pigweed: 0 to 100 scale where 0 is no effect and 100 is complete control; for Pigweed plant response rating: 0 to 100 scale
From the text: as §1

velvetleaf = assay type: in vivo, Abutilon theophrasti; details: for Plant response rating, Velvetleaf: 0 to 100 scale where 0 is no effect and 100 is complete control; for Velvetleaf plant response rating: 0 to 100 scale
From the text: as §1

wheat = assay type: in vivo, Triticum aestivum; details: for Plant response rating, Wheat: 0 to 100 scale where 0 is no effect and 100 is complete control; for Wheat plant response rating: 0 to 100 scale
From the text: as §1

corn = assay type: in vivo, Zea mays; details: for Plant response rating, Corn: 0 to 100 scale where 0 is no effect and 100 is complete control; for Corn plant response rating: 0 to 100 scale
From the text: as §1

[1] = Postemergence, 500 g ai/ha, 0 is no effect, 100 is complete control
[2] = Preemergence, 125 g ai/ha, 0 no effect, 100 complete control
[3] = Preemergence, 500 g ai/ha, 0 no effect, 100 complete control

SMILES	Plant response rating, Barnyardgrass (barnyardgrass; Postemergence, 125 g ai/ha)	Barnyardgrass plant response rating (barnyardgrass; [1])	Barnyardgrass plant response rating (barnyardgrass; [2])	Barnyardgrass plant response rating (barnyardgrass; [3])	Plant response rating, Crabgrass, Large (crabgrass; Postemergence, 125 g ai/ha)	Crabgrass, Large plant response rating (crabgrass; [1])	Crabgrass, Large plant response rating (crabgrass; [2])	Crabgrass, Large plant response rating (crabgrass; [3])	Plant response rating, Foxtail, Giant (giant foxtail; Postemergence, 125 g ai/ha)	Foxtail, Giant plant response rating (giant foxtail; [1])	Foxtail, Giant plant response rating (giant foxtail; [2])	Foxtail, Giant plant response rating (giant foxtail; [3])	Plant response rating, Morningglory (morningglory; Postemergence, 125 g ai/ha)	Morningglory plant response rating (morningglory; [1])	Morningglory plant response rating (morningglory; [2])	Morningglory plant response rating (morningglory; [3])	Plant response rating, Pigweed (redroot pigweed; Postemergence, 125 g ai/ha)	Pigweed plant response rating (redroot pigweed; [1])	Pigweed plant response rating (redroot pigweed; [2])	Pigweed plant response rating (redroot pigweed; [3])	further results
Cn1nc(C(F)(F)F)c(CS(=O)(=O)c2cc(C3CC3)cc[n+]2[O-])c1OC(F)F [Compound 118]	50	70	70	100	40	80	90	100	40	80	90	100	20	60	40	100	50	80	100	100	Plant response rating, Velvetleaf (velvetleaf; Postemergence, 125 g ai/ha): 40; Velvetleaf plant response rating (velvetleaf; [1]): 60; Velvetleaf plant response rating (velvetleaf; [2]): 20; Velvetleaf plant response rating (velvetleaf; [3]): 90; Plant response rating, Wheat (wheat; Postemergence, 125 g ai/ha): 40; Wheat plant response rating (wheat; [1]): 60; Wheat plant response rating (wheat; [2]): 40; Wheat plant response rating (wheat; [3]): 60; Plant response rating, Corn (corn; Postemergence, 125 g ai/ha): 0; Corn plant response rating (corn; [1]): 0; Corn plant response rating (corn; [2]): 0; Corn plant response rating (corn; [3]): 20
Cn1nc(C(F)(F)F)c(CS(=O)(=O)c2cc(C3CC3)cc[n+]2[O-])c1OCC(F)(F)F [Compound 119]	40	60	50	90	40	60	80	90	30	70	90	100	10	20	30	80	30	60	100	100	Plant response rating, Velvetleaf (velvetleaf; Postemergence, 125 g ai/ha): 10; Velvetleaf plant response rating (velvetleaf; [1]): 50; Velvetleaf plant response rating (velvetleaf; [2]): 20; Velvetleaf plant response rating (velvetleaf; [3]): 70; Plant response rating, Wheat (wheat; Postemergence, 125 g ai/ha): 30; Wheat plant response rating (wheat; [1]): 50; Wheat plant response rating (wheat; [2]): 0; Wheat plant response rating (wheat; [3]): 30; Plant response rating, Corn (corn; Postemergence, 125 g ai/ha): 0; Corn plant response rating (corn; [1]): 0; Corn plant response rating (corn; [2]): 0; Corn plant response rating (corn; [3]): 0
Cn1nc(C(F)(F)F)c(C[S+]([O-])c2cc(C3CC3)cc[n+]2[O-])c1OC(F)F (centres unmarked) [Compound 120]	60	70	80	100	50	80	90	90	80	90	100	100	50	80	80	90	60	80	100	100	Plant response rating, Velvetleaf (velvetleaf; Postemergence, 125 g ai/ha): 60; Velvetleaf plant response rating (velvetleaf; [1]): 80; Velvetleaf plant response rating (velvetleaf; [2]): 60; Velvetleaf plant response rating (velvetleaf; [3]): 80; Plant response rating, Wheat (wheat; Postemergence, 125 g ai/ha): 40; Wheat plant response rating (wheat; [1]): 50; Wheat plant response rating (wheat; [2]): 50; Wheat plant response rating (wheat; [3]): 100; Plant response rating, Corn (corn; Postemergence, 125 g ai/ha): 30; Corn plant response rating (corn; [1]): 70; Corn plant response rating (corn; [2]): 80; Corn plant response rating (corn; [3]): 90
Cn1nc(C(F)(F)F)c(C[S+]([O-])c2cc(C3CC3)cc[n+]2[O-])c1OCC(F)(F)F (centres unmarked) [Compound 121]	50	70	100	100	30	80	100	100	50	80	100	100	40	60	40	90	60	70	100	100	Plant response rating, Velvetleaf (velvetleaf; Postemergence, 125 g ai/ha): 40; Velvetleaf plant response rating (velvetleaf; [1]): 70; Velvetleaf plant response rating (velvetleaf; [2]): 60; Velvetleaf plant response rating (velvetleaf; [3]): 80; Plant response rating, Wheat (wheat; Postemergence, 125 g ai/ha): 30; Wheat plant response rating (wheat; [1]): 50; Wheat plant response rating (wheat; [2]): 60; Wheat plant response rating (wheat; [3]): 100; Plant response rating, Corn (corn; Postemergence, 125 g ai/ha): 20; Corn plant response rating (corn; [1]): 60; Corn plant response rating (corn; [2]): 60; Corn plant response rating (corn; [3]): 90
